# Laboratory results taken from patent publication US6541256B1, “Growth medium for human corneal endothelial cells” (The Schepens Eye Research Institute, Inc., priority 1999, dated 2003).
# System: endothelial "ionic pump"
# Experiment: pump function tested by pachymetry of transplanted corneas after exposure to ouabain
# Parameters: species or system human
# Conditions: 200 μM ouabain
# Experimental: Corneas from donors (52-80 years old) were obtained from an eye bank. Descemet's membrane was stripped and endothelial cells were removed by mild EDTA treatment. Cells, cultured in the preferred formulation of the culture medium, were identified by RT-PCR of collagen type VIII and keratin-12 and by morphology. Cells (2.5×10^5) were seeded onto denuded Descemet's membrane from a second donor cornea. The cornea was incubated in culture for up to 1 month. Cell-cell contact of transplanted cells was evaluated by ZO-1 staining. Morphology and ultrastructure were examined by transmission electron microscopy. Pump function was tested by pachymetry after exposure to 200 μM ouabain. Cultured cells were identified as corneal endothelium by characteristic mRNA expression and morphology. The success rate of primary cultures, obtained from corneas stored <5 days after death, was about 99%. […] With time, cell-substrate adhesion, cell-cell contact, and lateral interdigitation increased, and the cells rearranged to form a monolayer. When the endothelium is functional, it draws water out of the corneal stroma, resulting in a thin cornea. Ouabain, a cardiac glycoside, inhibits the function of the endothelial “ionic pump”, causing an increase in corneal thickness. […] Referring to FIG. 4, pachymetry of transplanted corneas after ouabain treatment is graphically depicted. […]
compound,measurement,setting,value
C[C@@H]1O[C@@H](O[C@H]2C[C@@H](O)[C@]3(CO)[C@H]4[C@H](O)C[C@]5(C)[C@@H](C6=CC(=O)OC6)CC[C@]5(O)[C@@H]4CC[C@]3(O)C2)[C@H](O)[C@H](O)[C@H]1O [ouabain],period over which corneal thickness increased to maximum,transplanted corneas after 14 days in organ culture,2 to 3 h
same,corneal thickness measured by pachymetry (FIG. 4),"transplants maintained 14 days in organ culture, 5 corneas",increased to a level equal to that of corneas denuded of endothelium
